Measured values reported in patent publication US8445503B2, “Inhibitors of polo-like kinase” (Elan Pharmaceuticals, Inc., priority 2009, dated 2013).

Columns and labels:
Assay type in all cases: biochemical
GST-PLK3 = target: T1, GST-PLK3 (Homo sapiens, UniProt Q9H4B4); experiment: PLK TR-FRET peptide assay, PLK3; settings: PLK TR-FRET peptide assay, GST-PLK3; read-out: Plk3 IC50
T1 construct: purchased CarnaBio

GST-PLK2 = target: T2, GST-PLK2 (Homo sapiens, UniProt Q9NYY3); experiment: PLK TR-FRET peptide assay, PLK2; settings: for IC50: PLK TR-FRET peptide assay, GST-PLK2, read-out: Plk2 IC50; for PLK2 activity relative to the opposite enantiomer / other isomer: comparison of resolved enantiomers, used to assign absolute configuration
T2 construct: purchased CarnaBio

GST-PLK1 = GST-PLK1 (Homo sapiens, UniProt P53350); experiment: PLK TR-FRET peptide assay, PLK1; settings: read-out: Plk1 IC50
Chain of GST-PLK1 (P53350 whole entry): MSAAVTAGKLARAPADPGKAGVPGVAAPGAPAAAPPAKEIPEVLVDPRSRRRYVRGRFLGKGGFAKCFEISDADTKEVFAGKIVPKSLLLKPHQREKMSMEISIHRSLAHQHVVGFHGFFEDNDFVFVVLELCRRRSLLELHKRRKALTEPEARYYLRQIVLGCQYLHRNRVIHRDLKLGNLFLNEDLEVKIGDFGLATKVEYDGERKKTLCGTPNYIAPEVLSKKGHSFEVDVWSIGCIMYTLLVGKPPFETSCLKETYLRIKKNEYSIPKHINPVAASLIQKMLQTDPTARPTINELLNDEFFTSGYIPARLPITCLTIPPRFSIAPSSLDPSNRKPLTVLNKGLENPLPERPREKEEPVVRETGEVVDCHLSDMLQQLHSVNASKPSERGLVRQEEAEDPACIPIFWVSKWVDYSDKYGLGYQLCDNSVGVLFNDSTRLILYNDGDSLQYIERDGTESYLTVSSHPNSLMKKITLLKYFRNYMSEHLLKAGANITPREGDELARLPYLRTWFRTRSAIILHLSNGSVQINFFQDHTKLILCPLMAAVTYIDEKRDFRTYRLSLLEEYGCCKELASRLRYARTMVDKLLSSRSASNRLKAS

T2 sequence (Q9NYY3 whole entry): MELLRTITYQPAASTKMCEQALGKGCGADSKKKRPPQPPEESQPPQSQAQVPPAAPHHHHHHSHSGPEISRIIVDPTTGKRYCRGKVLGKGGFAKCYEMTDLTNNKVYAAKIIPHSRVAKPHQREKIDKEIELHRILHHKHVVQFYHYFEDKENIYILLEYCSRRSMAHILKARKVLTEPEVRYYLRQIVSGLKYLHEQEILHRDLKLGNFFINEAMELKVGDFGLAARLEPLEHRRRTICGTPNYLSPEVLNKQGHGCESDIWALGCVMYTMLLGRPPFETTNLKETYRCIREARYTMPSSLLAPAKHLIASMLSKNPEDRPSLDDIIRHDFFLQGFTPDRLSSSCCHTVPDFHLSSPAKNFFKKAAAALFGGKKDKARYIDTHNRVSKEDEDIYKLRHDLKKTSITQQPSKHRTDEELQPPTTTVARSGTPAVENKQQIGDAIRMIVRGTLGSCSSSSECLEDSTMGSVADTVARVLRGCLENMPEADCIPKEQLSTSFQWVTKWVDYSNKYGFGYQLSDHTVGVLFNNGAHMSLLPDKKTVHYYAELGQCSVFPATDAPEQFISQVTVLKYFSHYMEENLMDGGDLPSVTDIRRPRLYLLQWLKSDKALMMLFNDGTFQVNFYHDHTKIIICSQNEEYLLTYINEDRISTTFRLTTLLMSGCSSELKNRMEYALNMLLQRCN
T1 sequence (Q9H4B4 whole entry): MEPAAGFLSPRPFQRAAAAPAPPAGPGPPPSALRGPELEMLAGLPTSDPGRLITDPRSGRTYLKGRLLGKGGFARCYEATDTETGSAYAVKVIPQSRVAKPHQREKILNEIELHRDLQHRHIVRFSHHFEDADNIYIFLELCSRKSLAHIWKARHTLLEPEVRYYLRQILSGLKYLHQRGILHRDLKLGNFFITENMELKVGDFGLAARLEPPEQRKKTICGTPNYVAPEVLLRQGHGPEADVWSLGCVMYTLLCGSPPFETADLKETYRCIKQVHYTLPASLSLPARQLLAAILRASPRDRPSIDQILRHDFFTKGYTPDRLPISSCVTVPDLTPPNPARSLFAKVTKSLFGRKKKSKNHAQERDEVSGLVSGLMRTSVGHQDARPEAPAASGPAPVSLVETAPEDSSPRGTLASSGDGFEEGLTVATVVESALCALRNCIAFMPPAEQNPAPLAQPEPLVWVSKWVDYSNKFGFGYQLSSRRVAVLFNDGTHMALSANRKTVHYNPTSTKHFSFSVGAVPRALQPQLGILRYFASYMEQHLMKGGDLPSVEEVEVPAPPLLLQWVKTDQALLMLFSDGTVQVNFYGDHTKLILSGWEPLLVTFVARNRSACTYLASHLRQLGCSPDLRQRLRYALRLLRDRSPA

SMILES | IC50 (GST-PLK3) [µM] | IC50 (GST-PLK2) [µM] | IC50 (GST-PLK1) [µM] | PLK2 activity relative to the opposite enantiomer / other isomer (GST-PLK2)
CC[C@]12COCCN1c1nc(-c3cn[nH]c3-c3nccs3)ncc1N(C)C2=O [Example 345, (R)-6a-ethyl-5-methyl-2-(5-(thiazol-2-yl)-1H-pyrazol-4-yl)-6a,7,9,10-tetrahydro-[1,4]oxazino[3,4-h]pteridin-6(5H)-one] | > 50 | 10 to 50 | > 50 | –
CC[C@@]12CN(C)CCN1c1nc(-n3ccnc3-c3ccccc3)ncc1N(C)C2=O [Example 374, (S)-6a-ethyl-5,8-dimethyl-2-(2-phenyl-1H-imidazol-1-yl)-'7,8,9,10-tetrahydro-5H-pyrazino[2,1-h]pteridin-6(6aH)-one] | 10 to 50 | < 1 | > 50 | more active compound
CC[C@]12CN(C)CCN1c1nc(-n3ccnc3-c3ccccc3)ncc1N(C)C2=O [Example 375, (R)-6a-ethyl-5,8-dimethyl-2-(2-phenyl-1H-imidazol-1-yl)-7,8,9,10-tetrahydro-5H-pyrazino[2,1-h]pteridin-6(6aH)-one] | > 50 | 10 to 50 | > 50 | –
CC[C@@]12COCCN1c1nc(-n3ccnc3-c3ccc(F)cc3F)ncc1N(C)C2=O [Example 376, (S)-2-(2-(2,4-difluorophenyl)-1H-imidazol-1-yl)-6a-ethyl-5-methyl-6a,7,9,10-tetrahydro-[1,4]oxazino[3,4-h]pteridin-6(5H)-one] | 10 to 50 | < 1 | 10 to 50 | more active compound
CC[C@]12COCCN1c1nc(-n3ccnc3-c3ccc(F)cc3F)ncc1N(C)C2=O [Example 377, (R)-2-(2-(2,4-difluorophenyl)-1H-imidazol-1-yl)-6a-ethyl-5-methyl-6a,7,9,10-tetrahydro-[1,4]oxazino[3,4-h]pteridin-6(5H)-one] | > 50 | 10 to 50 | > 50 | –
CC[C@@]12COCCN1c1nc(-n3ccnc3-c3ccc(F)cn3)ncc1N(C)C2=O [Example 380, (S)-6a-ethyl-2-(2-(5-fluoropyridin-2-yl)-1H-imidazol-1-yl)-5-methyl-6a,7,9,10-tetrahydro-[1,4]oxazino[3,4-h]pteridin-6(5H)-one] | > 50 | < 1 | > 50 | more active compound
CC[C@]12COCCN1c1nc(-n3ccnc3-c3ccc(F)cn3)ncc1N(C)C2=O [Example 381, (R)-6a-ethyl-2-(2-(5-fluoropyridin-2-yl)-1H-imidazol-1-yl)-5-methyl-6a,7,9,10-tetrahydro-[1,4]oxazino[3,4-h]pteridin-6(5H)-one] | > 50 | > 50 | > 50 | –
CC[C@]12COCCN1c1nc(-n3ccnc3-c3nccs3)ncc1N(C)C2=O [Example 386, (R)-6a-ethyl-5-methyl-2-(2-(thiazol-2-yl)-1H-imidazol-1-yl)-6a,7,9,10-tetrahydro-[1,4]oxazino[3,4-h]pteridin-6(5H)-one] | > 50 | > 50 | > 50 | –
CC[C@@]12COCCN1c1nc(-n3ccnc3-c3nccs3)ncc1N(C)C2=O [Example 387, (S)-6a-ethyl-5-methyl-2-(2-(thiazol-2-yl)-1H-imidazol-1-yl)-6a,7,9,10-tetrahydro-[1,4]oxazino[3,4-h]pteridin-6(5H)-one] | > 50 | < 1 | > 50 | more active compound
CC[C@@]12COCCN1c1nc(-c3snnc3-c3ccc(F)cc3F)ncc1N(C)C2=O [Example 397, (S)-2-(4-(2,4-difluorophenyl)-1,2,3-thiadiazol-5-yl)-6a-ethyl-5-methyl-6a,7,9,10-tetrahydro-[1,4]oxazino[3,4-h]pteridin-6(5H)-one] | 10 to 50 | < 1 | 10 to 50 | more active compound
CC[C@]12COCCN1c1nc(-c3snnc3-c3ccc(F)cc3F)ncc1N(C)C2=O [Example 398, (R)-2-(4-(2,4-difluorophenyl)-1,2,3-thiadiazol-5-yl)-6a-ethyl-5-methyl-6a,7,9,10-tetrahydro-[1,4]oxazino[3,4-h]pteridin-6(5H)-one] | > 50 | > 50 | > 50 | –
CCC1C(=O)N(C)c2cnc(-c3cn[nH]c3-c3nccs3)nc2N1c1cnn(CC2CC2)c1 (stereo not shown) [Example 400, 8-(1-(cyclopropylmethyl)-1H-pyrazol-4-yl)-7-ethyl-5-methyl-2-(5-(thiazol-2-yl)-1H-pyrazol-4-yl)-7,8-dihydropteridin-6(5H)-one] | 1 to 10 | < 1 | 1 to 10 | –
CC[C@@H]1C(=O)N(C)c2cnc(-n3ccnc3-c3ccc(F)cc3)nc2N1c1ccn(C)n1 [Example 407, (R)-7-ethyl-2-(2-(4-fluorophenyl)-1H-imidazol-1-yl)-5-methyl-8-(1-methyl-1H-pyrazol-3-yl)-7,8-dihydropteridin-6(5H)-one] | 1 to 10 | < 1 | 1 to 10 | more active compound
CC[C@H]1C(=O)N(C)c2cnc(-n3ccnc3-c3ccc(F)cc3)nc2N1c1ccn(C)n1 [Example 408, (S)-7-ethyl-2-(2-(4-fluorophenyl)-1H-imidazol-1-yl)-5-methyl-8-(1-methyl-1H-pyrazol-3-yl)-7,8-dihydropteridin-6(5H)-one] | > 50 | 1 to 10 | > 50 | –
CC[C@@H]1C(=O)N(C)c2cnc(-n3ccnc3-c3ccccc3)nc2N1c1cnn(C)c1 [Example 409, (R)-7-ethyl-5-methyl-8-(1-methyl-1H-pyrazol-4-yl)-2-(2-phenyl-1H-imidazol-1-yl)-7,8-dihydropteridin-6(5H)-one] | 1 to 10 | < 1 | < 1 | more active compound
CC[C@H]1C(=O)N(C)c2cnc(-n3ccnc3-c3ccccc3)nc2N1c1cnn(C)c1 [Example 410, (S)-7-ethyl-5-methyl-8-(1-methyl-1-pyrazol-4-yl)-2-(2-phenyl-1H-imidazol-1-yl)-7,8-dihydropteridin-6(5H)-one] | > 50 | > 50 | > 50 | –
CC[C@@]12COCCN1c1nc(-c3cn[nH]c3-c3ccc(F)cc3F)ncc1N(C)C2=O [Example 411, (S)-2-(5-(2,4-difluorophenyl)-1H-pyrazol-4-yl)-6a-ethyl-5-methyl-6a,7,9,10-tetrahydro-[1,4]oxazino[3,4-h]pteridin-6(5H)-one] | 1 to 10 | < 1 | 10 to 50 | more active compound

The remaining lines, values ahead:

IC50 (GST-PLK3) [µM] | IC50 (GST-PLK2) [µM] | IC50 (GST-PLK1) [µM] | PLK2 activity relative to the opposite enantiomer / other isomer (GST-PLK2) | SMILES
1 to 10 | < 1 | > 50 | more active compound | CC[C@@]12COCCN1c1nc(-c3snnc3-c3ccccc3)ncc1N(C)C2=O [Example 368, (S)-6a-ethyl-5-methyl-2-(4-phenyl-1,2,3-thiadiazol-5-yl)-6a,7,9,10-tetrahydro-[1,4]oxazino[3,4-h]pteridin-6(5H)-one]
> 50 | > 50 | > 50 | – | CC[C@]12COCCN1c1nc(-c3snnc3-c3ccccc3)ncc1N(C)C2=O [Example 369, (R)-6a-ethyl-5-methyl-2-(4-phenyl-1,2,3-thiadiazol-5-yl)-6a,7,9,10-tetrahydro-[1,4]oxazino[3,4-h]pteridin-6(5H)-one]
1 to 10 | 1 to 10 | 10 to 50 | – | CC[C@@]12COCCN1c1nc(-c3[nH]nnc3-c3ccccc3)ncc1N(C)C2=O [Example 373, (S)-6a-ethyl-5-methyl-2-(4-phenyl-1H-1,2,3-triazol-5-yl)-6a,7,9,10-tetrahydro-[1,4]oxazino[3,4-h]pteridin-6(5H)-one]
1 to 10 | < 1 | 1 to 10 | more active compound | CC[C@@]12COCCN1c1nc(-c3ccncc3-c3ccccc3)ncc1N(C)C2=O [Example 394, (S)-6a-ethyl-5-methyl-2-(3-phenylpyridin-4-yl)-6a,7,9,10-tetrahydro-[1,4]oxazino[3,4-h]pteridin-6(5H)-one]
1 to 10 | < 1 | < 1 | – | CC[C@@]12COCCN1c1nc(-c3ccncc3-c3ccccc3)ncc1N(C)C2=O [Example 395]
> 50 | > 50 | > 50 | – | CC[C@]12COCCN1c1nc(-c3ccncc3-c3ccccc3)ncc1N(C)C2=O [Example 396, (R)-6a-ethyl-5-methyl-2-(3-phenylpyridin-4-yl)-6a,7,9,10-tetrahydro-[1,4]oxazino[3,4-h]pteridin-6(5H)-one]
1 to 10 | < 1 | 10 to 50 | – | CC[C@@]12COCCN1c1nc(-c3cccnc3-c3ccccc3)ncc1N(C)C2=O [Example 403, (S)-6a-ethyl-5-methyl-2-(2-phenylpyridin-3-yl)-6a,7,9,10-tetrahydro-[1,4]oxazino[3,4-h]pteridin-6(5H)-one]
> 50 | > 50 | > 50 | – | CC[C@]12COCCN1c1nc(-c3cccnc3-c3ccccc3)ncc1N(C)C2=O [Example 404]
> 50 | 1 to 10 | > 50 | – | CC[C@]12COCCN1c1nc(-c3cn[nH]c3-c3ccc(F)cc3F)ncc1N(C)C2=O [Example 412, (R)-2-(5-(2,4-difluorophenyl)-1H-pyrazol-4-yl)-6a-ethyl-5-methyl-6a,7,9,10-tetrahydro-[1,4]oxazino[3,4-h]pteridin-6(5H)-one]
10 to 50 | < 1 | 10 to 50 | – | CC[C@@]12COCCN1c1nc(-c3cnoc3-c3ccccc3)ncc1N(C)C2=O [Example 413, (S)-6a-ethyl-5-methyl-2-(5-phenylisoxazol-4-yl)-6a,7,9,10-tetrahydro-[1,4]oxazino[3,4-h]pteridin-6(5H)-one]
